The structures appear in SMILES notation. Counter-ions that a name gives are not always drawn. Like-named read-outs stand apart in the source and are kept apart here.

The values that follow come from patent publication US10975056B2 (GlaxoSmithKline Intellectual Property Development Limited, priority 2016, dated 2021).

One experiment addresses DNMT1 (Homo sapiens, UniProt P26358). The experiment can be described thus: DNMT1 biochemical activity, breaklight assay and/or SPA assay. The conditions noted are these: for IC50 / DNMT1 BioChemical (pIC50 category): binned activity in either the breaklight or the SPA assay.
For experiment [1], the system named is erythroid progenitor cells (EPCs). The experiment can be described thus: Fetal hemoglobin (HbF) ELISA in day 7 erythroid progenitor cells.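 For EPC ELISA (pEC50 category): for fetal hemoglobin induction normalized to vehicle-treated cells.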 The conditions noted are these: Homo sapiens, Erythroid progenitor cell. It counts as cell-based, human. In short, it runs like this:
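HbF induction was read by anti-HbF sandwich ELISA (HRP/TMB, OD450) on lysates and normalized to vehicle-treated cells. Cells were day 7 erythroid progenitors derived from human bone marrow CD34+ cells, seeded at 1,000/well with 3 U/mL rhEPO. Compound was given for 5 days at 37 °C at final concentrations […].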
For orientation: An ELISA detects its analyte on a solid surface through an enzyme-linked reagent.

[2] abbreviates: read-out: DNMT1 BioChemical (pIC50 category) (converted).
[3] abbreviates: HbF ELISA, day 7 EPCs, 5 days, read-out: EPC ELISA (pEC50 category) (converted).

Sequence of DNMT1 (P26358 whole entry, looked up): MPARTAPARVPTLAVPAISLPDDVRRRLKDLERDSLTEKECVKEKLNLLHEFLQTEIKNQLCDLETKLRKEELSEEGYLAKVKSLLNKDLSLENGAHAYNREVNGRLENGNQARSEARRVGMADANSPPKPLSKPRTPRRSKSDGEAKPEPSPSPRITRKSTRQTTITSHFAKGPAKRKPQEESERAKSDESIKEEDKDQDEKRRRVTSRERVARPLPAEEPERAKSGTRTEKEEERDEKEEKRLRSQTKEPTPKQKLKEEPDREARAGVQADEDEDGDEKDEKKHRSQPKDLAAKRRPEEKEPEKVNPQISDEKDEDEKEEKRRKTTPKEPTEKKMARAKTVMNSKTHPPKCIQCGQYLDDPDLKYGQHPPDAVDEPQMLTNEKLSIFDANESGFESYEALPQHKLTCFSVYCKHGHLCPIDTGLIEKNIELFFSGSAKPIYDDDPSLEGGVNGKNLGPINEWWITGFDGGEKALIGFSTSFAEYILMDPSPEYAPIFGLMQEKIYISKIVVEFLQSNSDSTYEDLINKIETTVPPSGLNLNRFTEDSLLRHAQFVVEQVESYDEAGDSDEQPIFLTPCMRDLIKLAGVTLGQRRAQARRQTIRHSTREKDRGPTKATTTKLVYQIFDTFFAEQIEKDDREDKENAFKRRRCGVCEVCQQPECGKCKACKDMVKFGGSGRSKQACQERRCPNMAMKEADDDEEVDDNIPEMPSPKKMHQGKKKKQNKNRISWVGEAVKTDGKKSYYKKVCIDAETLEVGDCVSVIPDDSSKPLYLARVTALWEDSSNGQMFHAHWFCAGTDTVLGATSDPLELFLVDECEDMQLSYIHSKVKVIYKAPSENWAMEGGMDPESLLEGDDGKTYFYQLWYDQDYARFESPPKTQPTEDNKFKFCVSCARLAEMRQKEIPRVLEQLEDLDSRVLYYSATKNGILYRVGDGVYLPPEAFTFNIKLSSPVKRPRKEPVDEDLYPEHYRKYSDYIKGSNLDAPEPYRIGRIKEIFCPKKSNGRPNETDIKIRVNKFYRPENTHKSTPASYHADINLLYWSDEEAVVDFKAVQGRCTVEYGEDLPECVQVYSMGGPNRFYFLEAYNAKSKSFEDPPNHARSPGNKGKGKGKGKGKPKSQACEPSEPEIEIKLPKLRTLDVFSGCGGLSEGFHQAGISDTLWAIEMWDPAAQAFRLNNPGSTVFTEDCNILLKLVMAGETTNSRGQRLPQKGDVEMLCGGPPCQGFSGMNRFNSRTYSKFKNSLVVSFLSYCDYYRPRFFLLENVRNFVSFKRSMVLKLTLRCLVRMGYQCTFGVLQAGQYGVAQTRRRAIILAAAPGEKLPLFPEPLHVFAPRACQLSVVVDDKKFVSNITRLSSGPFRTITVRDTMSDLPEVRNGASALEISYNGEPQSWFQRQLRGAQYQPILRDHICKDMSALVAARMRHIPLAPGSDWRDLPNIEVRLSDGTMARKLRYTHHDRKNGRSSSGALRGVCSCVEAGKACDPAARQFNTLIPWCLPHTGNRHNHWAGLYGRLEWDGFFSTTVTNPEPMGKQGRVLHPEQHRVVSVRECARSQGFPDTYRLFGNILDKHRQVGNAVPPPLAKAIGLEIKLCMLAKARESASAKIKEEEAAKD

At DNMT1 (DNMT1 BioChemical (pIC50 category)), `CCc1c(C#N)c(SC(C(N)=O)c2ccccc2)nc(N2CCC23CCNCC3)c1C#N` (stereo not shown) [Example 38, 2-((3,5-Dicyano-4-ethyl-6-(1,7-diazaspiro[3.5]nonan-1-yl)pyridin-2-yl)thio)-2-phenylacetamide trifluoroacetate] came in with an IC50 of 316 to 1000 nM. Besides, the EC50 in experiment [1] (read-out: EPC ELISA (pEC50 category) (converted)) is 316 to 1000 nM.
As to `CCc1c(C#N)c(SC(C(N)=O)c2ccccc2)nc(N2CCNC(=O)CC2)c1C#N` (stereo not shown) [Example 8, 2-{[3,5-dicyano-4-ethyl-6-(5-oxo-1,4-diazepan-1-yl)pyridin-2-yl]sulfanyl}-2-phenylacetamide], the IC50 at DNMT1 (setting [2]) is 316 to 1000 nM. Besides, the EC50 in experiment [1] (setting [3]) is 1000 to 31600 nM.
On the same counts, the results for `CC(Sc1nc(N2CCCNCC2)c(C#N)c(C2CC2)c1C#N)C(N)=O` (stereo not shown) [Example 46, 2-((3,5-dicyano-4-cyclopropyl-6-(1,4-diazepan-1-yl)pyridin-2-yl)thio)propanamide] are 316 to 1000 nM and more than 31600 nM.
Take `CN1CCN(C2CCN(c3nc(SC(C(N)=O)c4ccccc4)c(C#N)c(C4CC4)c3C#N)CC2)CC1` (stereo not shown) [Example 40, 2-((3,5-Dicyano-4-cyclopropyl-6-(4-(4-methylpiperazin-1-yl)piperidin-1-yl)pyridin-2-yl)thio)-2-phenylacetamide]: at DNMT1, the “DNMT1 BioChemical (pIC50 category)” value is reported as “D (Category D: ≥6.5)”. Further, in experiment [1] (setting [3]), the EC50 was less than 316 nM.
On to `CCc1c(C#N)c(SC(C(N)=O)c2ccccc2)nc(N2CCC(O)CC2)c1C#N` (stereo not shown) [Example 48, 2-((3,5-Dicyano-4-ethyl-6-(4-hydroxypiperidin-1-yl)pyridin-2-yl)thio)-2-phenylacetamide], for which, at DNMT1 (setting [2]), the IC50 is 316 to 1000 nM. In addition, in experiment [1] (setting [3]), the EC50 was 1000 to 31600 nM.
`CCc1c(C#N)c(SC(C(N)=O)c2ccccc2)nc(N2CCN(CC)CC2)c1C#N` (stereo not shown) [Example 35, 2-((3,5-dicyano-4-ethyl-6-(4-ethylpiperazin-1-yl)pyridin-2-yl)thio)-2-phenylacetamide]: the IC50 at DNMT1 (setting [2]) was 316 to 1000 nM. The EC50 in experiment [1] (setting [3]) is 1000 to 31600 nM.
Taken in the same sequence, the figures for `CCc1c(C#N)c(SC(C(N)=O)c2ccccc2)nc(N2CCOCC2)c1C#N` (stereo not shown) [Example 57, 2-((3,5-Dicyano-4-ethyl-6-morpholinopyridin-2-yl)thio)-2-phenylacetamide] were 316 to 1000 nM and 316 to 1000 nM.
As to `N#Cc1c(SC(C(N)=O)c2ccncc2)nc(N2CCOCC2)c(C#N)c1C1CC1` (stereo not shown) [Example 9, 2-((3,5-dicyano-4-cyclopropyl-6-morpholinopyridin-2-yl)thio)-2-(pyridin-4-yl)acetamide], the IC50 on DNMT1 (setting [2]) is 316 to 1000 nM. The EC50 in experiment [1] (setting [3]) is more than 31600 nM.
`CCc1c(C#N)c(SC(C(N)=O)c2ccccc2)nc(N(C)C)c1C#N` (stereo not shown) [Compound A, 2-{[3,5-dicyano-6-(dimethylamino)-4-ethylpyridin-2-yl]sulfanyl}-2-phenylacetamide]: in experiment [1] (day 7 EPCs, 5 days at 37° C, read-out: increase in HbF, average pEC50 (converted)), the EC50 is 316 nM.
Consider `N#Cc1c(SC(C(N)=O)c2ccccc2)nc(N2CCOC(CO)C2)c(C#N)c1C1CC1` (stereo not shown) [Example 63, 2-((3,5-Dicyano-4-cyclopropyl-6-(2-(hydroxymethyl)morpholino)pyridin-2-yl)thio)-2-phenylacetamide], for which the IC50 at DNMT1 (setting [2]) is 316 to 1000 nM. Also, the EC50 in experiment [1] (setting [3]) is 316 to 1000 nM.
For `CCc1c(C#N)c(SC(C(N)=O)c2ccccc2)nc(N2CCNCC2)c1C#N` (stereo not shown) [Example 55, 2-((3,5-Dicyano-4-ethyl-6-(piperazin-1-yl)pyridin-2-yl)thio)-2-phenylacetamide], the IC50 at DNMT1 (setting [2]) was 316 to 1000 nM. Also, the EC50 in experiment [1] (setting [3]) is less than 316 nM.
On the same counts, the results for `CCc1c(C#N)c(N[C@@H](C(N)=O)c2ccccc2)nc(N2CCCNCC2)c1C#N` [Example 41, (R)-2-((3,5-dicyano-6-(1,4-diazepan-1-yl)-4-ethylpyridin-2-yl)amino)-2-phenylacetamide] are 316 to 1000 nM and 1000 to 31600 nM.
For the compound `CCc1c(C#N)c(SC(C(N)=O)c2ccccc2)nc(N2CCCN(C)CC2)c1C#N` (stereo not shown) [Example 56, 2-((3,5-Dicyano-4-ethyl-6-(4-methyl-1,4-diazepan-1-yl)pyridin-2-yl)thio)-2-phenylacetamide], on DNMT1, the “DNMT1 BioChemical (pIC50 category)” value is on record as “D (Category D: ≥6.5)”. In experiment [1] (setting [3]), the EC50 was less than 316 nM.
With `CN1CCN(CC2CCN(c3nc(SC(C(N)=O)c4ccccc4)c(C#N)c(C4CC4)c3C#N)CC2)CC1` (stereo not shown) [Example 125, 2-((3,5-Dicyano-4-cyclopropyl-6-(4-((4-methylpiperazin-1-yl)methyl)piperidin-1-yl)pyridin-2-yl)thio-2-phenylacetamide trifluoroacetate], the “DNMT1 BioChemical (pIC50 category)” value at DNMT1 was “D (Category D: ≥6.5)”. Further, the “average pIC50 against DNMT1” value at DNMT1 (breaklight assay and/or SPA assay, repeated experimental runs) is more than 6.5. Besides, in experiment [1] (setting [3]), the EC50 is less than 316 nM.
